Experimental data taken from patent publication US5854004A, “Process for screening substances capable of modulating a receptor-dependent cellular signal transmission path” (Boehringer Ingleheim GmbH, priority 1991, dated 1998).
Entries after “also recorded” stand apart in the source; their conditions may differ.

How the values were obtained:
A549 cells [1] = assay: Induction of TRE-sensor-DNA (luciferase) in transiently transfected pretest cells, A549; conditions: A549
Method: (§1) Approximately 1×10^7 cells per transfection were detached from the surface of the culture dish using trypsin and centrifuged for 5 minutes at 1200 rpm at ambient temperature (Heraeus Minifuge), washed once with 5 ml of serum-free medium, centrifuged for 5 minutes at 1200 rpm and suspended in 1 ml of serum-free medium. Then the cells were mixed with 250 μg/ml DEAE-dextrane, 5 μg plasmid DNA and 50 μg/ml chloroquin, incubated for 30 minutes at 37° C., washed once with medium containing no FCS and incubated overnight at 37° C. with 10 ml of fresh serum-containing medium. Then the medium was changed and after 4 hours the cells were induced, either with 10 ng TPA/ml medium or with 20 μM forskolin. […] The cells were lysed by the addition of 100 μl lysing buffer (1% Triton X-100, 25 mM glycylglycine pH 7.8, 15 mM MgSO4, 4 mM EDTA and 1 mM […]), the lysate was centrifuged for 5 minutes and the supernatant was transferred into a fresh test tube. […] The measuring time for light emission was 10 seconds.
(§2) The cell lines A549, HeLa and COS-7 were transiently transfected as described above by the addition of plasmid pBHluc1.3 and induced by the addition of TPA. Cells which were only transfected but not induced were used as a negative control.
(§3) The cell lines A549, HeLa and COS-7 were transiently transfected by the addition of plasmid pADneo(3TRE)BGluci and induced by the addition of TPA or forskolin. Once again, cells which were only transfected but not induced were used as a negative control.
(§4) The cell lines COS-7 and A549 were transiently transfected by the addition of plasmid pADneo(3×TREd16)BGluci, pADneo(3×TREd21)BGluci, pADneo(3×TREd24)BGluci, pADneo(3×TREd34)BGluci, pADneo(6×TREd16)BGluci, pADneo(6×TREd21)BGluci, pADneo(6×TREd24)BGluci or pADneo(6×TREd34)BGluci and induced by the addition of TPA or forskolin.

[2] = biological target: human dopamine D1-receptor (Homo sapiens, UniProt P21728); assay: Induction of pADneo2-C6-BGL (CRE) via dopamine-D1-receptor in co-transfected COS-7 cells; conditions: COS-7; 20 μM forskolin or 1 μM apomorphine, 18 h
human dopamine D1-receptor, sequence (P21728 whole entry): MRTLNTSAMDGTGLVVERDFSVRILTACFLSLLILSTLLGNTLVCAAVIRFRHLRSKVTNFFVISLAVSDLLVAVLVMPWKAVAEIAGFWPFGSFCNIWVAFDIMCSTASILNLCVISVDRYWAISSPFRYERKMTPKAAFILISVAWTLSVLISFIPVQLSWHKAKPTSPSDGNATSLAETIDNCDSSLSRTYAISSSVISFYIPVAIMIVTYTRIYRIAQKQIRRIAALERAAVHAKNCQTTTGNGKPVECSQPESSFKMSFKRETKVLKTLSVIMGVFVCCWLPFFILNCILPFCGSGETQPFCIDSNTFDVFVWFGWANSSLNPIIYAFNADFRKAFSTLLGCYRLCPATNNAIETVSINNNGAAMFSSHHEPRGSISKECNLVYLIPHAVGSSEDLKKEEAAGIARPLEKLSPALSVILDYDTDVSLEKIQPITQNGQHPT

COS-7 cells = assay: Induction of TRE-sensor-DNA (luciferase) in transiently transfected pretest cells, COS-7; conditions: COS-7
Method: as §1, §2, §3, §4

A549 cells [3] = conditions: Voraberger et al., 1991; cited from earlier work
HeLa cells = assay: Induction of TRE-sensor-DNA (luciferase) in transiently transfected pretest cells, HeLa; conditions: 10 ng TPA/ml or 20 μM forskolin, 18 h
Method: as §1, §2, §3

cell line A20 = assay: Luciferase induction in stable TRE-pretest cell line A20 (A549, pBHluc1.3); conditions: A20
Method: In order to produce a stable (pre-)test cell line for substances which influence the expression of the luciferase gene by direct or receptor-mediated modulation of the IP3 /DAC-signal transduction pathway, A549 cells were simultaneously transfected with the plasmid pBHluc1.3 and the selection plasmid pRSVneo by electroporation as follows: after removal of the medium the cells were detached from the surface by means of a trypsin/PBS solution, suspended in medium and sedimented for 5 minutes at 250×g. […] 0.8 ml of cell suspension were combined with 20 μg of pBHluc1.3 and 2 μg of pRSVneo. Both plasmids had previously been linearised with BamHI.
(§5) 15-20 days after transfection, individual cell clones were transferred into 96-well microtitre plates and further cultivated. […] Approximately 40,000 cells in each clone were sown, in a procedure repeated 6 times, in 200 μl per well of a light-impervious 96-well microtitre plate coated with tissue culture (Microlite™, Dynatech Laboratories) and incubated overnight at 37° C. Three mixtures were treated with 10 ng TPA/ml and incubated for a further 8 hours. Then the medium was removed and the cells were washed twice with PBS.
(§6) The pretest cell line A20 was transfected, as described under a), by electroporation with the plasmid pAHyg-NK2, which had previously been linearised with BglII. From the day after transfection onwards, the cells were grown in selection medium, as used for the cell line A20 and additionally enriched with 150 μg/ml hygromycin B (Sigma). Individual clones were tested for inducibility of the luciferase activity as described under a).

[4] = biological target: T1, human neurokinin 2-receptor (Homo sapiens, UniProt P21452); assay: Luciferase activity in NK2-test cell line A20/NK2-122; conditions: A20/NK2-122
T1 sequence (P21452 1-398): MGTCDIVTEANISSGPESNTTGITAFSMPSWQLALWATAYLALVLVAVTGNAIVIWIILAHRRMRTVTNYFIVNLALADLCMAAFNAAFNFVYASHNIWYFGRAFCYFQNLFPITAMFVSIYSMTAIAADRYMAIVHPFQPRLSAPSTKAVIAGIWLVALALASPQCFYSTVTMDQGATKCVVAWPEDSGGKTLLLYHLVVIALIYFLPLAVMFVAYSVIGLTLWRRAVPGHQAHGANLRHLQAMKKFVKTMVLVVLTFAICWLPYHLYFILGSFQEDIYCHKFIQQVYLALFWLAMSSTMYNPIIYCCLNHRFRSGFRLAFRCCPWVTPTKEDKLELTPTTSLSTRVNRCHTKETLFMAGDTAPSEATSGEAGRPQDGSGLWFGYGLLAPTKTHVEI
Method: as §5
This Example illustrates the preparation of a test cell line for the human neurokinin 2 (NK2)-receptor which is coupled to the phospholipase C-signal transduction pathway. This test cell line makes it possible, by measurement of the luciferase activity, to identify substances which modulate the intracellular IP3 /DAG concentrations, depending on the receptor.
as §6

cell line CHO C6-13 = assay: Luciferase expression in CRE-pretest cell line CHO C6-13
Method: The transfection by electroporation was carried out as follows: after removal of the medium the cells were detached from the surface by means of a trypsin/PBS solution, suspended in medium and pelleted for 5 minutes at 250×g. The cells were washed in HBS (10 mM HEPES pH 7.4, 150 mM NaCl) and pelleted by centrifuging. The cells were suspended in HBS in a density of 1×10^7 cells/ml. 0.8 ml of cell suspension were mixed with 20 μg of DNA of the plasmid pADneo2-C6-BGL linearised with ScaI and transferred into an electroporation dish. […] After the electroporation the cells were diluted in the medium mentioned above, 20,000 cells per 90 mm culture dish was sown and incubated overnight at 37° C.
Two batches of each were treated with 20 μM forskolin and incubated for a further 5 hours at 37° C. Then the medium was removed from all the cells and the cells were washed with PBS.
Cells of the cell line CHO C6-13 were treated for 3 hours with various substances which alter the intracellular concentration of cAMP or IP3 /DAG or simulate a change in concentration, and also treated with receptor-specific agonists which influence the above-mentioned signal transduction mechanisms.

CHO C12-32 = assay: Luciferase inducibility in CRE-pretest cell clone C12-32; assay type: cell-based, Chinese hamster; conditions: 20 μM forskolin, 5 hours
Method: (This plasmid differs from the pADneo2-C6-BGL described in Example 1) in that the section containing the 6 CRE-elements is duplicated and the β-globin promotor is replaced by the TK-promotor (see Example 1 b)). In order to do this the SalI-HindIII-β-globin-promotor-fragment was replaced by a similarly cut fragment containing the TK-promotor (McKnight, 1980)).
The transfection and testing of the cell clones were carried out as in Example 7 a).

human 5HT2-receptor = human 5HT2-receptor (Homo sapiens, UniProt P28223); assay: Induction of pADneo2-C6-BGL (CRE) via 5-HT2-receptor in co-transfected COS-7 cells; assay type: cell-based; conditions: 20 μM forskolin or 10 μ α-methylserotonin-maleate
human 5HT2-receptor, sequence (P28223 whole entry): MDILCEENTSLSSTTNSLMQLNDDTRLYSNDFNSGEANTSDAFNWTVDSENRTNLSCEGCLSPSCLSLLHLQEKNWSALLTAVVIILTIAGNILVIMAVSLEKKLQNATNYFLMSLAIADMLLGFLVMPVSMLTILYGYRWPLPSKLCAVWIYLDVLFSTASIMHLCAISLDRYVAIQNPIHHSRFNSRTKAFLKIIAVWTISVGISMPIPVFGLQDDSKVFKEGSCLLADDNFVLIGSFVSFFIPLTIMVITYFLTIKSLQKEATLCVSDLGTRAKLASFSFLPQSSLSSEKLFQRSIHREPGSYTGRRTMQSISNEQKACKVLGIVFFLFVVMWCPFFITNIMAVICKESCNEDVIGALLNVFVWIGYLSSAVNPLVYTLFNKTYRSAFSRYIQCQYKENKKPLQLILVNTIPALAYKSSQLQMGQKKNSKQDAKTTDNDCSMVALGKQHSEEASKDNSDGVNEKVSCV
Method: Induction was carried out with i) 20 μM forskolin (Sigma P8139), ii) 10 μα-methylserotonin-maleate (RBI M-110), and iii) 10 μα-methylserotonin-maleate and 10 μM ketanserin-tartrate (RBI S-006). […] It follows, from the above results, that, depending on 5-HT2 -receptors, only regulation elements which respond to IP3 /DAG (TRE), but not regulation elements which respond to cAMP (CRE) are selectively activated.

[5] = 10 ng TPA/ml or 20 μM forskolin, 18 h

SMILES: C=C[C@@]1(C)CC(=O)[C@]2(O)[C@@]3(C)[C@@H](O)CCC(C)(C)[C@@H]3[C@H](O)[C@H](OC(C)=O)[C@@]2(C)O1 [forskolin]
- induction of pADneo(3TRE)BGluci (A549 cells [1]; [5]): not by forskolin
- induction of pADneo(nTREdx)BGluci by forskolin (A549 cells [1]; 20 μM forskolin): none of the constructions can be induced with forskolin
- induction of luciferase expression (CRE) [2]: induced by forskolin and by apomorphine
- induction of pADneo(3TRE)BGluci (COS-7 cells; [5]): not by forskolin
- induction of pBHluc1.3 by TPA or forskolin (COS-7 cells; [5]): not by forskolin
- induction of pADneo(nTREdx)BGluci by forskolin (COS-7 cells; 20 μM forskolin): none of the constructions can be induced with forskolin
- induction of 1.3 kb ICAM-1 fragment / pBHluc1.3 (A549 cells [3]): cannot be activated by forskolin; also recorded: cannot be induced by forskolin
- induction of pADneo(3TRE)BGluci (HeLa cells): not by forskolin
- induction of pBHluc1.3 by TPA or forskolin (HeLa cells): not by forskolin
- induction of luciferase activity by forskolin (cell line A20): did not result in any induction of luciferase activity
- induction of luciferase activity by forskolin [4]: did not result in any induction of luciferase activity
- inducibility of luciferase by forskolin, clone C6-13 (cell line CHO C6-13; 20 μM forskolin, 5 hours): very high inducibility
- change in luciferase expression/activity (cell line CHO C6-13; 3 hours treatment, FIG. 33): increased
- luciferase induction at concentrations higher than 20 μM (attributed to toxic effects or excessively high cAMP level) (cell line CHO C6-13; > 20 μM forskolin): drop in luciferase induction at even higher concentrations
- EC100 (cell line CHO C6-13; Cricetulus griseus, read-out: concentration of maximum induction of the luciferase reporter gene): 20 µM
- time up to which induction does not change (cell line CHO C6-13; after forskolin stimulation): 4 h
- time after stimulation at which increased luciferase activity can be detected (cell line CHO C6-13; forskolin, FIG. 35A): 60 min
- time to total induction of luciferase expression (cell line CHO C6-13; forskolin, FIG. 35A): 2.5 h
- dependency of ED50 levels on duration of treatment (cell line CHO C6-13; forskolin, FIG. 35B): virtually unaffected
- inducibility of luciferase by forskolin, clone C12-32 (CHO C12-32): very high inducibility
- induction of luciferase expression (CRE) (human 5HT2-receptor): induced by forskolin
